Measurements as given in BindingDB's records for doi:10.1016/j.bmcl.2015.11.098 (Janssen Pharmaceutica, 2016).

Target: Metabotropic glutamate receptor 5 (Homo sapiens, UniProt P41594)
Test: Positive allosteric modulation of human mGlu5 expressed in HEK293 cells assessed as glutamate-induced calcium mobilization

Metabotropic glutamate receptor 5, sequence (P41594 whole entry): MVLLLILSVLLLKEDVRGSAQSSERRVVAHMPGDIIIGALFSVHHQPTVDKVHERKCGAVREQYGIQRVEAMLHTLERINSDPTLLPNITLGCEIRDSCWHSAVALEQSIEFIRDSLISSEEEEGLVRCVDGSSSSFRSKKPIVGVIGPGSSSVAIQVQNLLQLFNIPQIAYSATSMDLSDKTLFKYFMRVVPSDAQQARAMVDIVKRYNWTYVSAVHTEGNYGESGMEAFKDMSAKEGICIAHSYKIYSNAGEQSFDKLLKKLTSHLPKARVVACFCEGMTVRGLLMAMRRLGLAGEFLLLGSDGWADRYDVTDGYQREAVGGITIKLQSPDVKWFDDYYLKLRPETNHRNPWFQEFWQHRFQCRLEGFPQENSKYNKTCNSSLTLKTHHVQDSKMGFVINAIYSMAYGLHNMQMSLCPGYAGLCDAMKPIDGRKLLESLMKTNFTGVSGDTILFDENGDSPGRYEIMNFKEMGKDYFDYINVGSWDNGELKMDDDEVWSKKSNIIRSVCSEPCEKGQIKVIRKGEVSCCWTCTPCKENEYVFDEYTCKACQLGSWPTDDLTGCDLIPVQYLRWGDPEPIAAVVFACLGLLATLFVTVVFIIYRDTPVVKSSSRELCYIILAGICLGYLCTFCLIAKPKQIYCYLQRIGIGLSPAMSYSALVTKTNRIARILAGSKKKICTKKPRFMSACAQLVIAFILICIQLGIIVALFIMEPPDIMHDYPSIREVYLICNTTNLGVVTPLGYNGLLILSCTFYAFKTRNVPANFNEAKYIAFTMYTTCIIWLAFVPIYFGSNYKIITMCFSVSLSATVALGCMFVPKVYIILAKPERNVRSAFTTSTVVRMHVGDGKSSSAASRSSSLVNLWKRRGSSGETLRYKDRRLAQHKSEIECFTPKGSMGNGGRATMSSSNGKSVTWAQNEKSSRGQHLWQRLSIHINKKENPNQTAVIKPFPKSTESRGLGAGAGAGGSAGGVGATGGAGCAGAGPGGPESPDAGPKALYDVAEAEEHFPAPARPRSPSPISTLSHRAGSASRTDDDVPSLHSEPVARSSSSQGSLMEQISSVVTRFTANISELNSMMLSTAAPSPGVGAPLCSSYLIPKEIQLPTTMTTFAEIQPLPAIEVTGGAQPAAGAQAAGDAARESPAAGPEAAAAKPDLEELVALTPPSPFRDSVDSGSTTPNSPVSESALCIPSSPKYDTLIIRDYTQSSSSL

EC50: 2810 nM
Structure (SMILES): O=C1c2nc(COc3ccccc3)nn2CCN1c1ccc(F)cc1
